# Source: ChEMBL document CHEMBL1649335, “Discovery of {1-[4-(2-{hexahydropyrrolo[3,4-c]pyrrol-2(1H)-yl}-1H-benzimidazol-1-yl)piperidin-1-yl]cyclooctyl}methanol, systemically potent novel non-peptide agonist of nociceptin/orphanin FQ receptor as analgesic for the treatment of neuropathic pain: design, synthesis, and structure-activity …” (Bioorg Med Chem, 2010)
# Activity calls are given as the source filed them.
# Experiments:
# Nociceptin receptor [1] = target: T1, Nociceptin receptor (Homo sapiens, UniProt P41146); assay: biochemical
# [2] = Inhibition of rat phospholipase C
# Glutamate NMDA receptor = assay: Inhibition of rat NMDA receptor; type: protein-complex assay
# [3] = Inhibition of rat Na+ channel site 2
# Nociceptin receptor [4] = target: T1, Nociceptin receptor
# [5] = Inhibition of rat K+ATP channel
# [6] = target: T2, Voltage-gated L-type calcium channel (Rattus norvegicus, UniProt P22002+Q02485+P27732); assay: Inhibition of rat L-type Ca2+ channel dihydropyridine site
# Rattus norvegicus [7] = assay: Antiallodynic activity against von Frey hair mechanically stimulated neuropathic pain in Sprague-Dawley rat assessed as effect on allodynia in contralateral paw at 1 to 30 mg/kg, sc after 30 mins to 4 hrs; type: functional, organism-based
# Rattus norvegicus [8] = assay: Antiallodynic activity against von Frey hair mechanically stimulated neuropathic pain in Sprague-Dawley rat assessed as increase of response threshold at 1 to 30 mg/kg, sc after 30 mins to 4 hrs; type: functional, organism-based
# Rattus norvegicus [9] = assay: Antiallodynic activity against von Frey hair mechanically stimulated neuropathic pain in Sprague-Dawley rat assessed as assessed as minimum effective dose to increase of response threshold at 1 to 30 mg/kg, sc after 30 mins to 4 hrs; type: functional, organism-based
# [10] = Inhibition of rat choline transporter
# Tyrosine 3-monooxygenase = Tyrosine 3-monooxygenase (Rattus norvegicus, UniProt P04177); assay: Inhibition of rat tyrosine hydroxylase
# [11] = Stimulation of rat adenylate cyclase
# Rattus norvegicus [12] = assay: Antiallodynic activity against von Frey hair mechanically stimulated neuropathic pain in icv dosed Sprague-Dawley rat assessed as decrease of response threshold in contralateral paw after 20 mins; type: functional, organism-based
# Rattus norvegicus [13] = assay: Antiallodynic activity against von Frey hair mechanically stimulated neuropathic pain in Sprague-Dawley rat assessed as effect on allodynia in contralateral paw at 0.55 to 170 nmol/site administered intrathecally after 20 mins; type: functional, organism-based
# Rattus norvegicus [14] = assay: Antiallodynic activity against von Frey hair mechanically stimulated neuropathic pain in Sprague-Dawley rat assessed as increase of response threshold per site at 0.55 to 55 nmol/site administered intrathecally after 1 hr; type: functional, organism-based
# Rattus norvegicus [15] = assay: Antiallodynic activity against von Frey hair mechanically stimulated neuropathic pain in Sprague-Dawley rat assessed as assessed as minimum effective dose to increase of response threshold per site at 0.55 to 55 nmol/site administered intrathecally after 1 hr; type: functional, organism-based
# Rattus norvegicus [16] = assay: Antiallodynic activity against von Frey hair mechanically stimulated neuropathic pain in Sprague-Dawley rat assessed as increase of response threshold per site at 0.55 to 170 nmol/site, icv after 1 hr; type: functional, organism-based
# Rattus norvegicus [17] = assay: Antiallodynic activity against von Frey hair mechanically stimulated neuropathic pain in Sprague-Dawley rat assessed as increase of response threshold per site at 0.55 to 170 nmol/site, icv after 20 mins; type: functional, organism-based
# Rattus norvegicus [18] = assay: Antiallodynic activity against von Frey hair mechanically stimulated neuropathic pain in Sprague-Dawley rat assessed as assessed as minimum effective dose to increase of response threshold per site at 0.55 to 170 nmol/site, icv after 1 hr; type: functional, organism-based
# Rattus norvegicus [19] = assay: Antiallodynic activity against von Frey hair mechanically stimulated neuropathic pain in Sprague-Dawley rat assessed as effect on allodynia in contralateral paw at 0.55 to 170 nmol/site administered intrathecally after 1 hr; type: functional, organism-based
# Rattus norvegicus [20] = assay: Antiallodynic activity against von Frey hair mechanically stimulated neuropathic pain in intrathecally dosed Sprague-Dawley rat assessed as increase of response threshold per site after 20 mins; type: functional
# Rattus norvegicus [21] = assay: Antiallodynic activity against von Frey hair mechanically stimulated neuropathic pain in intrathecally dosed Sprague-Dawley rat assessed as assessed as minimum effective dose to increase of response threshold per site after 20 mins; type: functional
# Rattus norvegicus [22] = assay: Antiallodynic activity against von Frey hair mechanically stimulated neuropathic pain in icv dosed Sprague-Dawley rat assessed as decrease of response threshold in contralateral paw after 1 hr; type: functional, organism-based
# Rattus norvegicus [23] = assay: Antiallodynic activity against von Frey hair mechanically stimulated neuropathic pain in Sprague-Dawley rat assessed as assessed as minimum effective dose to increase of response threshold per site at 0.55 to 170 nmol/site, icv after 20 mins; type: functional, organism-based
# Mu-type opioid receptor = Mu-type opioid receptor (Homo sapiens, UniProt P35372)
# [24] = Inhibition of rat 5-HT receptor
# [25] = target: T2, Voltage-gated L-type calcium channel; assay: Inhibition of rat L-type Ca2+ channel verapamil site
# [26] = target: Kappa-type opioid receptor (Homo sapiens, UniProt P41145)
# in vitro = details: human, liver microsomes
# [27] = Inhibition of rat N-type Ca2+ channel
# [28] = Inhibition of rat GABA transporter
# [29] = Inhibition of rat chloride channel
# T1 sequence (P41146 whole entry): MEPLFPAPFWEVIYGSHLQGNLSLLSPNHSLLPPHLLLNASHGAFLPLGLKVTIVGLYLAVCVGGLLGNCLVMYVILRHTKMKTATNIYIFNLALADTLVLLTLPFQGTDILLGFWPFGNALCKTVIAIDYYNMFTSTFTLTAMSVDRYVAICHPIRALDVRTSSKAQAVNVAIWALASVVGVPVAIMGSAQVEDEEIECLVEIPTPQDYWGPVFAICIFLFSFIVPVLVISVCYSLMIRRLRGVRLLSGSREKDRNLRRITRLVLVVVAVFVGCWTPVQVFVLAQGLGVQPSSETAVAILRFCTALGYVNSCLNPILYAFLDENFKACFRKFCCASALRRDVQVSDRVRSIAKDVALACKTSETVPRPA
# Mu-type opioid receptor, sequence (P35372 whole entry): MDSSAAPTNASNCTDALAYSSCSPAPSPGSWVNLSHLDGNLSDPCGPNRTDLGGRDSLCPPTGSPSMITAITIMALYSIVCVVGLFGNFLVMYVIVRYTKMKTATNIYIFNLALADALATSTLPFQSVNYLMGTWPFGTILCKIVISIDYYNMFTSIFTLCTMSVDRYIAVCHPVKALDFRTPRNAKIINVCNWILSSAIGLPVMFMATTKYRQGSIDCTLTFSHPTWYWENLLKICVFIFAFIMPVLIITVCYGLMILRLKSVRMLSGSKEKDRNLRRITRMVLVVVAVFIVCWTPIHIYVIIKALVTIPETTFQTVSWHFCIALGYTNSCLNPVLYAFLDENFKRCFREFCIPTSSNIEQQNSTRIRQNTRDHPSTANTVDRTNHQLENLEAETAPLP
# Kappa-type opioid receptor, sequence (P41145 whole entry): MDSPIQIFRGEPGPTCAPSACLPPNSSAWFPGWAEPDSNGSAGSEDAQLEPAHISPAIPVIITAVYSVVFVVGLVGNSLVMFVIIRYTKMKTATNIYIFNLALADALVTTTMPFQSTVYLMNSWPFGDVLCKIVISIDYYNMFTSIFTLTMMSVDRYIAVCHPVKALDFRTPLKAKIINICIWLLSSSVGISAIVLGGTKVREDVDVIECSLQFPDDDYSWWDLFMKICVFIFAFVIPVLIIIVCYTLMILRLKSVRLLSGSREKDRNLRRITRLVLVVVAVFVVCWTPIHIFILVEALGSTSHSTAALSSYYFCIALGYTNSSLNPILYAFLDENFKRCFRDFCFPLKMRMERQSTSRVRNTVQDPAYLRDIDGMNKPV
# Tyrosine 3-monooxygenase, sequence (P04177 whole entry): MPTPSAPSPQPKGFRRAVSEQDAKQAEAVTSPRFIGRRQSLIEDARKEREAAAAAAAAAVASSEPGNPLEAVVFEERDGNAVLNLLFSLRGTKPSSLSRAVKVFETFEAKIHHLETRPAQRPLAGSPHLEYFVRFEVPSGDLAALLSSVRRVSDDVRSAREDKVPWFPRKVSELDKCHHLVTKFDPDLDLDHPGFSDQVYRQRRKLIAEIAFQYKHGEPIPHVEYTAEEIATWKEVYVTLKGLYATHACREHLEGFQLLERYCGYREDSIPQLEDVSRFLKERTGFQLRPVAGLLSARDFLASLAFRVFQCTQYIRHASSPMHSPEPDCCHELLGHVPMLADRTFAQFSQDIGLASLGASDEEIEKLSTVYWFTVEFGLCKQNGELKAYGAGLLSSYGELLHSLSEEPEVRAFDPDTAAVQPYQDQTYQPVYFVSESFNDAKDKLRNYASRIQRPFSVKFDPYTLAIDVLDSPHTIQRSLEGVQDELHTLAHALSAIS
structure (smiles),measurement,setting,value
CN1CCN(c2nc3ccccc3n2C2CCN(C3(C(=O)O)CCCCCCC3)CC2)CC1,Ki,Nociceptin receptor [1],> 250 nM
NC[C@@H]1O[C@H](O[C@H]2[C@@H](O)[C@H](O[C@@H]3[C@@H](O)[C@H](N)C[C@H](N)[C@H]3O[C@H]3O[C@H](CN)[C@@H](O)[C@H](O)[C@H]3N)O[C@@H]2CO)[C@H](N)[C@@H](O)[C@@H]1O [FRAMYCETIN],IC50,[2],7.9 nM
O=C(O)[C@@H]1C[C@H](CP(=O)(O)O)CCN1 [SELFOTEL],IC50,Glutamate NMDA receptor,1620 nM
COc1ccc(C(=O)O[C@H]2CC[C@@]3(C)[C@@H]4CC[C@H]5[C@]6(O)C[C@H](O)[C@@]7(O)[C@@H](CN8C[C@@H](C)CC[C@H]8[C@@]7(C)O)[C@]6(O)C[C@@]53O[C@]24O)cc1OC [VERATRIDINE],IC50,[3],10700 nM
OCC1(N2CCC(n3c(-c4ccc(F)c(Cl)c4)nc4ccccc43)CC2)CCCCC1,EC50,Nociceptin receptor [4],53 nM
same,Ki,Nociceptin receptor [1],4.29 nM
COc1ccc(Cl)cc1C(=O)NCCc1ccc(S(=O)(=O)NC(=O)NC2CCCCC2)cc1 [GLYBURIDE],IC50,[5],1.1 nM
CCOC(=O)C1=C(C)NC(C)=C(C(=O)OC)C1c1cccc([N+](=O)[O-])c1 (stereo not drawn) [NITRENDIPINE],IC50,[6],1.3 nM
CC1(C)CN(c2nc3ccccc3n2C2CCN(C3(CO)CCCCCCC3)CC2)CCN1,Activity,Rattus norvegicus [7],inactive
same,EC50,Nociceptin receptor [4],23 nM
same,ED50,Rattus norvegicus [8],inactive
same,Ki,Nociceptin receptor [1],4.54 nM
same,MED,Rattus norvegicus [9],inactive
C[N+]1(C)CCO[C@@](O)(c2ccc(-c3ccc([C@@]4(O)C[N+](C)(C)CCO4)cc3)cc2)C1 [HEMICHOLINIUM DIBROMIDE],IC50,[10],7.7 nM
N[C@@H](Cc1ccc(O)c(I)c1)C(=O)O [IOTYROSINE],IC50,Tyrosine 3-monooxygenase,1.4 nM
C=C[C@@]1(C)CC(=O)[C@]2(O)[C@@]3(C)[C@@H](O)CCC(C)(C)[C@@H]3[C@H](O)[C@H](OC(C)=O)[C@@]2(C)O1 [COLFORSIN],EC50,[11],4300 nM
CC(C)C[C@H](NC(=O)[C@H](CCCCN)NC(=O)[C@H](CCCNC(=N)N)NC(=O)[C@H](C)NC(=O)[C@H](CO)NC(=O)[C@H](CCCCN)NC(=O)[C@H](CCCNC(=N)N)NC(=O)[C@H](C)NC(=O)CNC(=O)[C@@H](NC(=O)[C@H](Cc1ccccc1)NC(=O)CNC(=O)CNC(=O)[C@@H](N)Cc1ccccc1)[C@@H](C)O)C(=O)N[C@@H](C)C(=O)N[C@@H](CC(N)=O)C(=O)N[C@@H](CCC(N)=O)C(=O)O [NOCICEPTIN],Activity,Rattus norvegicus [12],Dose-dependent effect
same,Activity,Rattus norvegicus [13],inactive
same,ED50,Rattus norvegicus [14],inactive
same,MED,Rattus norvegicus [15],inactive
same,ED50,Rattus norvegicus [16],inactive
same,ED50,Rattus norvegicus [17],inactive
same,MED,Rattus norvegicus [18],inactive
same,Activity,Rattus norvegicus [19],inactive
same,ED50,Rattus norvegicus [20],10.3 nmol
same,MED,Rattus norvegicus [21],55 nmol
same,Activity,Rattus norvegicus [22],Dose-dependent effect
same,MED,Rattus norvegicus [23],inactive
OCC1(N2CCC(n3c(-c4ccc(F)c(Cl)c4)nc4ccccc43)CC2)CCCCCCC1,EC50,Nociceptin receptor [4],8.9 nM
same,Ki,Nociceptin receptor [1],0.73 nM
same,EC50,Mu-type opioid receptor,1220 nM
NCCc1c[nH]c2ccc(O)cc12 [SEROTONIN],IC50,[24],2.7 nM
COc1ccc(CCN(C)CCCC(C#N)(c2cc(OC)c(OC)c(OC)c2)C(C)C)cc1OC (stereo not drawn) [GALLOPAMIL],IC50,[25],23 nM
CN1CCN(c2nc3ccccc3n2C2CCN(C3(CO)CCCCCCC3)CC2)CC1,EC50,Nociceptin receptor [4],17 nM
same,EC50,[26],18 nM
same,Ki,Nociceptin receptor [1],4.29 nM
same,half-life at 1 µM,in vitro,9.5 min
C[C@@H](O)[C@@H]1NC(=O)[C@H](Cc2ccc(O)cc2)NC(=O)[C@@H]2C[C@@H](O)CN2C(=O)[C@H](CC(N)=O)NC(=O)[C@@H]2CSSC[C@@H]3NC(=O)[C@H](CO)NC(=O)[C@H](CO)NC(=O)CNC(=O)[C@@H]4C[C@@H](O)CN4C(=O)[C@H](CO)NC(=O)[C@H](CCCCN)NC(=O)[C@@H](N)CSSC[C@H](NC(=O)[C@H](CSSC[C@@H](C(=O)N[C@@H](Cc4ccc(O)cc4)C(N)=O)NC(=O)[C@H](CCCNC(=N)N)NC(=O)[C@H](CCCCN)NC1=O)NC(=O)[C@H](CC(N)=O)NC(=O)[C@H](Cc1ccc(O)cc1)NC(=O)[C@H](CO)NC(=O)[C@H]([C@@H](C)O)NC(=O)[C@@H]1C[C@@H](O)CN1C(=O)[C@H](CO)NC3=O)C(=O)N[C@@H](CCCNC(=N)N)C(=O)N[C@@H](CO)C(=O)N2,IC50,[27],0.045 nM
O=C(O)C1CCCNC1 (stereo not drawn) [NIPECOTIC ACID],IC50,[28],7170 nM
CC1CN(c2nc3ccccc3n2C2CCN(C3(CO)CCCCCCC3)CC2)CCN1 (stereo not drawn),EC50,Nociceptin receptor [4],38 nM
same,EC50,[26],366 nM
same,Ki,Nociceptin receptor [1],0.96 nM
same,EC50,Mu-type opioid receptor,1770 nM
same,half-life at 1 µM,in vitro,19.7 min
C=C(C)[C@@H]1[C@H]2OC(=O)[C@@H]1[C@]1(O)C[C@H]3O[C@]34C(=O)O[C@H]2[C@]14C [PICROTOXININ],IC50,[29],385 nM
OCC1(N2CCC(n3c(-c4ccc(Cl)cc4)nc4ccccc43)CC2)CCCCCCC1,EC50,Nociceptin receptor [4],9.1 nM
same,Ki,Nociceptin receptor [1],0.15 nM
same,EC50,Mu-type opioid receptor,> 10000 nM
